Source: patent US12053451B2, “Arginase inhibitors and their therapeutic applications” (OncoArendi Therapeutics S.A., priority 2016, dated 2024)
Counter-ions that a name gives are not always drawn.

How the values were obtained:
[1] = biological target: T1, recombinant human arginase 1 (Homo sapiens, UniProt P05089); experiment: Human arginase activity assay (urea measurement), arginase 1; assay type: biochemical; conditions: recombinant human arginase 1, pH 7.4, 37° C., 60 min; * = value for the most potent diastereoisomer or the mixture of diastereoisomers; read-out: Activity Class (ARG I)
T1 construct: purchased Biolegend 552502
T1 sequence (P05089 1-322): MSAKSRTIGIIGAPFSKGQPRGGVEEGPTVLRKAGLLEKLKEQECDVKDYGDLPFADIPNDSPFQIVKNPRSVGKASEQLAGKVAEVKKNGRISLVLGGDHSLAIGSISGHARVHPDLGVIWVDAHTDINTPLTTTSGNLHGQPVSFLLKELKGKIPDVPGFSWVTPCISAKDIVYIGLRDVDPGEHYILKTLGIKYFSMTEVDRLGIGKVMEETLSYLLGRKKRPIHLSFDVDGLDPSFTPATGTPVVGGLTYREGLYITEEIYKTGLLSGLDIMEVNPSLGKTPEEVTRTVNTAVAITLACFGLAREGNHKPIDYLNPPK
Experimental: (§1) Human Arginase Activity Assay
The assay was run in the 96-well plate format, each reaction in the total volume of 100 uL. The assay is based on urea measurement, which is a product of L-arginine enzymatic degradation. […] The color product is developed by adding a mixture of reagent A (4 mM oPA in 50 mM boric acid in 1M sulfuric acid, 0.03% Brij-35) and reagent B (4 mM NED in 50 mM boric acid in 1M sulfuric acid, 0.03% Brij-35) in equal proportions. The absorbance for each well was measured at 530 nm.
(§2) For positive control, only the enzyme and substrate were used, the negative controls contained substrate solution with assay buffer. After incubating the microtiter plate at 37° C. for 60 min 150 μL of mixed reagents A and B was added to each well to stop the reaction. Absorbance was measured (λ=530 nm) 20 minutes later, after color development. The urea production in the absence of any compound was considered the maximum arginase activity. The absorbance in the absence of arginase (background) was subtracted from all the values. The normalized OD was used to generate a concentration-response curve by plotting the percent of inhibition against log[concentration] of the compound and using regression analysis (GraphPad Prism 7.0) to compute the IC50 values.

[2] = biological target: T2, intracellular arginase in macrophages isolated from murine bone marrow (BMDM) (Mus musculus, UniProt Q61176); experiment: Cell-based assay: intracellular arginase in bone marrow derived macrophages (BMDM), urea level; design: species or system Balb/c mice; conditions: murine BMDM with M-CSF and IL-4, urea measured 24 hours after compound; * = most potent diastereoisomer or mixture of diastereoisomers; read-out: Activity Class (BMDM)
T2 construct: endogenous in cells; host or cells: primary bone marrow derived macrophages from Balb/c mice, M-CSF and IL-4 treated
T2 sequence (Q61176 1-323): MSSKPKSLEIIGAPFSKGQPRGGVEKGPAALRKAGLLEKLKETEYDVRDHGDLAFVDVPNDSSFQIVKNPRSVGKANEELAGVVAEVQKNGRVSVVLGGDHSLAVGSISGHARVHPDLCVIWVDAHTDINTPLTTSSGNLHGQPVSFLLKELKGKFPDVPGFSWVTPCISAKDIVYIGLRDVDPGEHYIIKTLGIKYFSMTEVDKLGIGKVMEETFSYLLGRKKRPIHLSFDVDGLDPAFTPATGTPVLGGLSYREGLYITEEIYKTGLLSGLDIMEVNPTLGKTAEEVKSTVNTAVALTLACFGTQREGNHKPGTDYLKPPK
Experimental: Efficacy of Selected Examples Towards Intracellular Arginase in Macrophages Isolated from Murine Bone Marrow—Bone Marrow Derived Macrophages (BMDM)
Materials & Methods: The assay was performed according to modified literature protocol modification (Pineda-Torra I et al., Methods Mol Biol. 2015; 1339:101-9. Mia S et al. Scand J Immunol. 2014 May; 79(5):305-14). The femurs and tibias were isolated from Balb/c mice. Bones were cleaned from all attached tissues by using sterile swab without affecting the bone structure. Bones were sterilized by immersion in 70% ethanol for 5 min and then rinsed in PBS. The sides of the bones were cut off and flush with cold sterile PBS by using 26-G needle S into a 50 mL sterile tube with a cell strainer (Falcon™, Cat. No. U00149), until bone cavity appeared white. Then the cells were centrifuged (5 min at 500×G, 4° C.), washed twice with PBS and counted. Cells were plated in Petri dish in density of 1×10^6/mL and cultured in DMEM (Gibco, Cat. No. 31331-029) with 10% FBS, 1% pen-strep and 50 ng/mL M-CSF (PeproTech, Cat. No. 315-02), (37° C., 5% CO2). After five days cells were subcultured into P96 plate (BD, Cat. No. 353072) in density of 64 000 cells/well in medium supplemented with 50 ng/mL M-CSF and 20 ng/mL IL-4 (Biomibo Cat. No. 214-1). One day later exemplary compounds (dissolved in PBS) were added in several different concentrations and 24 hours later the level of urea was measured in each well (Jung D et al., Clin Chem. 1975, 21(8):1136-40). The concentration of urea in the absence of any compound was considered as the maximum. The absorbance of cell culture media (background) was subtracted from all the values.
(§3) For selected examples the activity class for ARG2 was estimated based on % of inhibition for 1 μM and 100 μM concentration of tested compounds.

[3] = biological target: T3, recombinant human arginase 2 (Homo sapiens, UniProt P78540); experiment: Human arginase activity assay (urea measurement), arginase 2; assay type: biochemical; conditions: for selected examples class estimated from % of inhibition at 1 μM and 100 μM, * = most potent diastereoisomer or mixture of diastereoisomers, read-out: Activity Class (ARG II)
T3 construct: made in house; host or cells: CHO
T3 sequence (P78540 23-354): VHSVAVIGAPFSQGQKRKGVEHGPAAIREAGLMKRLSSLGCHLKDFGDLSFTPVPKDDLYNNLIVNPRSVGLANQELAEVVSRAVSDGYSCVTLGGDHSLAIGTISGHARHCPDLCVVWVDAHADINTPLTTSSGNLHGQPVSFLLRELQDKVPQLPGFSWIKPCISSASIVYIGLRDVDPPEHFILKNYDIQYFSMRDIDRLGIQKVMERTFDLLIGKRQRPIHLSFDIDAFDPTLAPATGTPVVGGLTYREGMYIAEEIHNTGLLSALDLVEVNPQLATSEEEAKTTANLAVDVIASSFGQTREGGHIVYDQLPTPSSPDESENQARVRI
Experimental: as §1
An enzymatic assay with recombinant human arginases 1 (Biolegend, Cat. No. 552502) and 2 (homemade in eukaryotic expression system of CHO, purified by FPLC) was used in order to assess inhibitory activity of the compounds. The assay was run in the 96-well plate format, each reaction in the total volume of 100 uL. The assay is based on urea measurement, which is a product of L-arginine enzymatic degradation. (Baggio et al. J Pharmacol. Exp. Ther. 1999, 290, 1409-1416). The color product is developed by adding a mixture of reagent A (4 mM oPA in 50 mM boric acid in 1M sulfuric acid, 0.03% Brij-35) and reagent B (4 mM NED in 50 mM boric acid in 1M sulfuric acid, 0.03% Brij-35) in equal proportions. The absorbance for each well was measured at 530 nm.
as §2, with “Briefly, to each well of a 96-well microtiter plate 40 μL of enzyme in the reaction assay buffer (pH 7.4, 100 mM sodium phosphate buffer, 130 mM NaCl, 1 mg/mL albumin), 50 μL of the test compound solution and 10 μL of enzyme substrate solution (L-arginine hydrochloride, natural pH 5.6, final concentration 20 mM and a cofactor—manganese chloride, final concentration 150 μM) was added. For” for “For”
as §3

## N[C@@]1(C(=O)O)CNC[C@@H](CCB(O)O)C1 (racemic) [Example 57, rac-(3R,5S)-3-amino-5-(2-boronoethyl)piperidine-3-carboxylic acid dihydrochloride]
[1]
  IC50: 1 to 10 µM
[2]
  IC50: 10 to 100 µM

## CC(C)(C)NC[C@@H]1CC[C@@H](CCB(O)O)C[C@]1(N)C(=O)O (racemic) [Example 33, rac-(1R,2S,5R)-1-amino-5-(2-boronoethyl)-2-((tert-butylamino)methyl)cyclohexanecarboxylic acid dihydrochloride]
[1]
  IC50: 0.001 to 0.1 µM
[2]
  IC50: 0.1 to 1 µM

## N[C@]1(C(=O)O)C[C@H](CCB(O)O)CC[C@H]1CNCC(F)(F)F (racemic) [Example 36, rac-(1R,2S,5R)-1-amino-5-(2-boronoethyl)-2-(((2,2,2-trifluoroethyl)amino)methyl)cyclohexanecarboxylic acid dihydrochloride]
[3]
  IC50: 0.1 to 1 µM
[1]
  IC50: > 100 µM

## CN1C[C@@H](CCB(O)O)C[C@](N)(C(=O)O)C1 (racemic) [Example 59, rac-(3R,5S)-3-amino-5-(2-boronoethyl)-1-methylpiperidine-3-carboxylic acid]
[3]
  IC50: 1 to 10 µM
[1]
  IC50: 1 to 10 µM

## CC1=CCC(CCB(O)O)CC1(N)C(=O)O (centres unmarked) [Example 51, 1-amino-5-(2-boronoethyl)-2-methylcyclohex-2-enecarboxylic acid hydrochloride]
[3]
  IC50: 1 to 10 µM
[1]
  IC50: 0.1 to 1 µM

## NC1(C(=O)O)CCCCC(CCB(O)O)C1 (centres unmarked) [Example 12, 1-Amino-3-(2-boronoethyl)cycloheptane-1-carboxylic acid hydrochloride]
[3]
  IC50: > 100 µM
[1]
  IC50: > 100 µM

## CC1(CCB(O)O)CCC(N)(C(=O)O)C1 (racemic) [Example 3, 1-amino-3-(2-boronoethyl)-3-methylcyclopentane-1-carboxylic acid]
[3]
  IC50: > 100 µM
[1]
  IC50: > 100 µM

## CC(C)N(C)C[C@@H]1CC[C@@H](CCB(O)O)C[C@]1(N)C(=O)O (racemic) [Example 32, rac-(1R,2S,5R)-1-amino-5-(2-boronoethyl)-2-((isopropyl(methyl)amino)methyl)cyclohexanecarboxylic acid]
[1]
  IC50: 0.1 to 1 µM
[2]
  IC50: 0.1 to 1 µM

## N[C@@]1(C(=O)O)C[C@H](CCB(O)O)CC[C@@H]1O (racemic) [Example 15, rac-(1S,2S,5R)-1-Amino-5-(2-boronoethyl)-2-hydroxycyclohexane-1-carboxylic acid hydrochloride]
[3]
  IC50: > 100 µM
[1]
  IC50: > 100 µM

## N[C@]1(C(=O)O)C[C@H](CCB(O)O)[C@@H](O)C1 (racemic) [Example 5, rac-(1R,3S,4S)-1-Amino-3-(2-boronoethyl)-4-hydroxycyclopentane-1-carboxylic acid hydrochloride]
[3]
  IC50: > 100 µM
[1]
  IC50: > 100 µM

## N[C@@]1(C(=O)O)C[C@H](CCB(O)O)[C@@H](O)C1 (racemic) [Example 4, rac-(1S,3S,4S)-1-Amino-3-(2-boronoethyl)-4-hydroxycyclopentane-1-carboxylic acid hydrochloride]
[3]
  IC50: 10 to 100 µM
[1]
  IC50: 10 to 100 µM

## CN(C)C[C@@H]1CC[C@@H](CCB(O)O)C[C@@]1(N)C(=O)O (racemic) [Example 19, rac-(1S,2S,5R)-1-amino-5-(2-boronoethyl)-2-((dimethylamino)methyl)cyclohexane-1-carboxylic acid dihydrochloride]
[3]
  IC50: 1 to 10 µM
[1]
  IC50: 1 to 10 µM

## CN(C)CCC1CC[C@@H](CCB(O)O)CC1(N)C(=O)O (single isomer, unassigned) [Example 47, dihydrochloride]
[3]
  IC50: 0.001 to 0.1 µM
[1]
  IC50: 0.1 to 1 µM

## COc1ccc(N(C)C[C@@H]2CC[C@@H](CCB(O)O)C[C@]2(N)C(=O)O)cc1 (racemic) [Example 37, rac-(1R,2S,5R)-1-amino-5-(2-boronoethyl)-2-(((4-methoxyphenyl)(methyl)amino)methyl)cyclohexanecarboxylic acid dihydrochloride]
[3]
  IC50: 1 to 10 µM
[1]
  IC50: 1 to 10 µM

## NC1(C(=O)O)CC(CCB(O)O)CCC1(O)Cc1ccc(Cl)cc1 (single isomer, unassigned) [Example 52, 1-amino-5-(2-boronoethyl)-2-(4-chlorobenzyl)-2-hydroxycyclohexanecarboxylic acid hydrochloride]
[3]
  IC50: 10 to 100 µM
[1]
  IC50: 10 to 100 µM

## CN(C[C@@H]1CC[C@@H](CCB(O)O)C[C@]1(N)C(=O)O)c1ccccc1 (racemic) [Example 40, rac-(1R,2S,5R)-1-amino-5-(2-boronoethyl)-2-((methyl(phenyl)amino)methyl)cyclohexanecarboxylic acid dihydrochloride]
[3]
  IC50: 1 to 10 µM
[1]
  IC50: 1 to 10 µM
